Reference: patent publication US12082907B2, “Systems, methods, and apparatus for multichannel imaging of fluorescent sources in real-time” (Memorial Sloan Kettering Cancer Center, priority 2013, dated 2024)

System: spontaneous melanoma miniswine model
Assay: Pre-operative PET-CT SLN mapping in spontaneous melanoma miniswine model
Format: in vivo, Sinclair miniature swine
Text: FIG. 6 depicts imaging of metastatic disease in a spontaneous melanoma miniswine model, in accordance with an embodiment of the present disclosure. ^124I-cRGDY-PEG-C dots and combined PET-optical imaging approaches can evaluate SLN mapping in a spontaneous melanoma miniswine model (Misfeldt, Vet. Immunol. Immunopathol. (1994); Oxenhandler, Am. J. Pathol. (1979); Millikan, J. Invest. Dermatol. (1974)) (Sinclair miniature swine, Sinclair Research Center). Image-guided metastatic disease detection, staging, and the assessment of differential tumor burden in SLN/s were evaluated in 4-10 kg miniswine (n=5) in conjunction with correlative histopathology. […]
FIGS. 7A-7I depict image-guided SLN Mapping in a spontaneous melanoma miniswine model using pre-operative PET imaging, in accordance with an embodiment of the present disclosure. These studies were expanded to include optical imaging using the portable ArteMIS™ fluorescence camera system, along with radiodetection using the gamma probe, for performing real-time assessments of the draining tumor lymphatics and nodal metastases. […] FIG. 7I depicts radioactivity levels of the primary tumor, SLN (in vivo, ex vivo), and a site remote from the primary tumor (i.e., background), using a handheld gamma probe. […]

2-deoxy-2-[^18F]fluoro-D-glucose [^18F-FDG]
discrimination of metastatic disease from inflammatory processes (miniswine with granulomatous inflammatory changes (n=3), PET-CT): failed to detect metastatic disease
detection of nodal metastases on PET-CT (representative miniswine, neck nodes, dynamic imaging over 1 hour): clear absence of nodal metastases
